ChEMBL document CHEMBL1135457 (J Med Chem, 2002)

Columns and labels:
Androgen receptor = target: T1, Androgen receptor (Homo sapiens, UniProt P10275); test: Displacement of [3H]DHT from human Androgen receptor
T1 sequence (P10275 whole entry): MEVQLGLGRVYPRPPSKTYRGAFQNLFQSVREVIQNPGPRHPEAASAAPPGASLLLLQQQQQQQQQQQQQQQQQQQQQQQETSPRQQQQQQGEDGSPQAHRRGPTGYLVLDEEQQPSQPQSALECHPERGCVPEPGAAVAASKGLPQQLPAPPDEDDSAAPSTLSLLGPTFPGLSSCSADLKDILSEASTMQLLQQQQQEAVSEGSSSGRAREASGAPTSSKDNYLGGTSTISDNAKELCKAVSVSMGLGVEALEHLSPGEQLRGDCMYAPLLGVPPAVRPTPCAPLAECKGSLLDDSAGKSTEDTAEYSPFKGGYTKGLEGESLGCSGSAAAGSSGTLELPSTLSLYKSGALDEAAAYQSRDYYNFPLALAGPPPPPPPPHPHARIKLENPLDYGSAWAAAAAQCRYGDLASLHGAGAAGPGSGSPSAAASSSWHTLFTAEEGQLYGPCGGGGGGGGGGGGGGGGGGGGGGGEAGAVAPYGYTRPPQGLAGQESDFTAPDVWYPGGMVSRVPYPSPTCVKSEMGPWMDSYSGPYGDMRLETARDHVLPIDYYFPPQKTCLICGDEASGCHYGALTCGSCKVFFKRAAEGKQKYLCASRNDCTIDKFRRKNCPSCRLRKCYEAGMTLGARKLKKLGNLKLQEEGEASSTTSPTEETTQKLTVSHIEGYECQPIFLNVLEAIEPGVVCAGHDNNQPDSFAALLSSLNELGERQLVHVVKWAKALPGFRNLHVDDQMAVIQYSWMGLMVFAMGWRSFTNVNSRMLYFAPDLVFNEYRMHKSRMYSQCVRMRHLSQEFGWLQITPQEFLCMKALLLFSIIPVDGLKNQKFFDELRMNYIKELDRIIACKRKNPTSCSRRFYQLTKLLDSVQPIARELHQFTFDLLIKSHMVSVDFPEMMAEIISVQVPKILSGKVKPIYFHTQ

Estrogen receptor = target: T2, Estrogen receptor (Homo sapiens, UniProt P03372); test: Displacement of radioligand from human Estrogen receptor alpha
T2 sequence (P03372 whole entry): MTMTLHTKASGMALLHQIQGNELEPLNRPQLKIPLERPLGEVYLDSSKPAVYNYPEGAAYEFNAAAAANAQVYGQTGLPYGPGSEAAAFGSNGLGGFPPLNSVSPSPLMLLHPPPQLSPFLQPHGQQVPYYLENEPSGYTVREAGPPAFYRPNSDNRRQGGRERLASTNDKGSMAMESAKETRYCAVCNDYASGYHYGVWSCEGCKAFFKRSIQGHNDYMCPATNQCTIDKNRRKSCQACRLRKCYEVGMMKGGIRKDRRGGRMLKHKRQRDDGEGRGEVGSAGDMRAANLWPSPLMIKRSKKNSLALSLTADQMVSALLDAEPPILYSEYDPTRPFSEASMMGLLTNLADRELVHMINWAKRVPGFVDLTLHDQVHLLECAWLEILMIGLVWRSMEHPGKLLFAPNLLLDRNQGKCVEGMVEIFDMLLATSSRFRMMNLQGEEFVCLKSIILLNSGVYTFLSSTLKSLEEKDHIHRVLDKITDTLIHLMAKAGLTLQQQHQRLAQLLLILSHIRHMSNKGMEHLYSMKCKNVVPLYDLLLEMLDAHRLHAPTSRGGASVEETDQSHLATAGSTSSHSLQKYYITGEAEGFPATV

Progesterone receptor = target: T3, Progesterone receptor (Homo sapiens, UniProt P06401); test: Displacement of radioligand from human Progesterone receptor
T3 sequence (P06401 whole entry): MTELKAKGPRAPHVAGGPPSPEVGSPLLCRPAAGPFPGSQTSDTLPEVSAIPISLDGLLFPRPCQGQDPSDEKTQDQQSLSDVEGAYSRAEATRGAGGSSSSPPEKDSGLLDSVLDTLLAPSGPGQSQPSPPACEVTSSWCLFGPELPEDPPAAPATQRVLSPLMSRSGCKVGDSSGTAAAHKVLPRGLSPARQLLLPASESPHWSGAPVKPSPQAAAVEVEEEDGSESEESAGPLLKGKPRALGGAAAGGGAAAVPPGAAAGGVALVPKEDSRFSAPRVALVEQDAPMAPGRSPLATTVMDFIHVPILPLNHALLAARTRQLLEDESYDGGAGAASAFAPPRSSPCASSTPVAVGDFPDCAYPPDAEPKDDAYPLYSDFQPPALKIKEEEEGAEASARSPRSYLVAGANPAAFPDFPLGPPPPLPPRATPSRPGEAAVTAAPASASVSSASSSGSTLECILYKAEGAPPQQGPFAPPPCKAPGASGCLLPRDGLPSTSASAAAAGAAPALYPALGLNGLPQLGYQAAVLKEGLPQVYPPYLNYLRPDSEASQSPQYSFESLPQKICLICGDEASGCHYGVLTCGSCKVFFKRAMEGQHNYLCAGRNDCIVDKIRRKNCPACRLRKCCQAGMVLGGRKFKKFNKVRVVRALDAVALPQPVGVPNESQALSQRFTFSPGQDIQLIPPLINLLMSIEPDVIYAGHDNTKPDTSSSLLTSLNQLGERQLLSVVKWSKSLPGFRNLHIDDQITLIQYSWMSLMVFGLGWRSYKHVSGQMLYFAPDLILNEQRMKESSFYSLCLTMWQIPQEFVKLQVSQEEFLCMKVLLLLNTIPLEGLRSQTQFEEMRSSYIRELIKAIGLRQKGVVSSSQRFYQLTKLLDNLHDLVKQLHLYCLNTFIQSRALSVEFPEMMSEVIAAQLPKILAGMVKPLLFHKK

Estrogen receptor beta [1] = target: T4, Estrogen receptor beta (Homo sapiens, UniProt Q92731); test: Displacement of radioligand from human ER beta
T4 sequence (Q92731 whole entry): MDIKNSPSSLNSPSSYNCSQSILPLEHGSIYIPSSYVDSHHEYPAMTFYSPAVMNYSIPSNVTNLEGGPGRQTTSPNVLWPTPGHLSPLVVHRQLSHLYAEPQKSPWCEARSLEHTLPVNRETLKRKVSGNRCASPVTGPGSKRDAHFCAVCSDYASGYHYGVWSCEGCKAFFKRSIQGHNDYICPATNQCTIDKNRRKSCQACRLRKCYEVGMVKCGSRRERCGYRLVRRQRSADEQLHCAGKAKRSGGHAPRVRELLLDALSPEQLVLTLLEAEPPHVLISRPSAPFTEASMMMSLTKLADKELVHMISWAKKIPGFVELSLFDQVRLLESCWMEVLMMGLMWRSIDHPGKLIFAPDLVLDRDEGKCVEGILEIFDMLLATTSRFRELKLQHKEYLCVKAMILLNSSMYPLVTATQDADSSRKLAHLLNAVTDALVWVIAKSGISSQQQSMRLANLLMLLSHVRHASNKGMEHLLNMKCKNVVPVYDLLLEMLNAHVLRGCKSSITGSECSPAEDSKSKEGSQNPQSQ

Glucocorticoid receptor = target: T5, Glucocorticoid receptor (Homo sapiens, UniProt P04150); test: Displacement of 10 nM [3H]dexamethasone from human Glucocorticoid receptor
T5 sequence (P04150 whole entry): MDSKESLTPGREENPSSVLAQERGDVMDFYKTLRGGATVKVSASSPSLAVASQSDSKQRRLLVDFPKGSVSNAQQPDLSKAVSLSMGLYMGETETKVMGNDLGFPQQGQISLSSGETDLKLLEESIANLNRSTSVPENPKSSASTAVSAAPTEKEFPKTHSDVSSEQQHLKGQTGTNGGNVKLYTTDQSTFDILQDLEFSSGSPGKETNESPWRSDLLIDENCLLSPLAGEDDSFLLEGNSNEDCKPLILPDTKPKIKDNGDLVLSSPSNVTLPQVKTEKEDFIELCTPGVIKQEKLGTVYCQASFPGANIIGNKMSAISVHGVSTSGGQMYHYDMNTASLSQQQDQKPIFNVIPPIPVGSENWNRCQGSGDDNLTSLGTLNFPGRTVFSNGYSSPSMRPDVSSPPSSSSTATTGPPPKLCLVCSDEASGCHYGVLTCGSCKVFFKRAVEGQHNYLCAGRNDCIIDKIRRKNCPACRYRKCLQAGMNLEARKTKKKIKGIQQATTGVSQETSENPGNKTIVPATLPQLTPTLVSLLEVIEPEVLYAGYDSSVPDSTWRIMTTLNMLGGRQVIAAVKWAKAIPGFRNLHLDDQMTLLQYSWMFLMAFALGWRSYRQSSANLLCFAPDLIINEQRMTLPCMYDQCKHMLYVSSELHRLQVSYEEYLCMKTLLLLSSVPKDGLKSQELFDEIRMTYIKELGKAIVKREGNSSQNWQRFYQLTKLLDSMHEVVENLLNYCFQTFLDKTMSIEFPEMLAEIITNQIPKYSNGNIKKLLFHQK

[2] = target: T6, Estrogen receptor (Homo sapiens) (UniProt P03372); test: Displacement of radioligand from human Estrogen receptor alpha, percent inhibition at 10 uM
T6 sequence (whole entry): T2 sequence (P03372 whole entry)

[3] = target: T7, Glucocorticoid receptor (Homo sapiens) (UniProt P04150)
T7 sequence (whole entry): T5 sequence (P04150 whole entry)
Description: (§1) Antagonist activity as displacement of 10 nM [3H]dexamethasone from human Glucocorticoid receptor

[4] = target: T8, Mineralocorticoid receptor (Homo sapiens) (UniProt P08235)
T8 sequence (whole entry): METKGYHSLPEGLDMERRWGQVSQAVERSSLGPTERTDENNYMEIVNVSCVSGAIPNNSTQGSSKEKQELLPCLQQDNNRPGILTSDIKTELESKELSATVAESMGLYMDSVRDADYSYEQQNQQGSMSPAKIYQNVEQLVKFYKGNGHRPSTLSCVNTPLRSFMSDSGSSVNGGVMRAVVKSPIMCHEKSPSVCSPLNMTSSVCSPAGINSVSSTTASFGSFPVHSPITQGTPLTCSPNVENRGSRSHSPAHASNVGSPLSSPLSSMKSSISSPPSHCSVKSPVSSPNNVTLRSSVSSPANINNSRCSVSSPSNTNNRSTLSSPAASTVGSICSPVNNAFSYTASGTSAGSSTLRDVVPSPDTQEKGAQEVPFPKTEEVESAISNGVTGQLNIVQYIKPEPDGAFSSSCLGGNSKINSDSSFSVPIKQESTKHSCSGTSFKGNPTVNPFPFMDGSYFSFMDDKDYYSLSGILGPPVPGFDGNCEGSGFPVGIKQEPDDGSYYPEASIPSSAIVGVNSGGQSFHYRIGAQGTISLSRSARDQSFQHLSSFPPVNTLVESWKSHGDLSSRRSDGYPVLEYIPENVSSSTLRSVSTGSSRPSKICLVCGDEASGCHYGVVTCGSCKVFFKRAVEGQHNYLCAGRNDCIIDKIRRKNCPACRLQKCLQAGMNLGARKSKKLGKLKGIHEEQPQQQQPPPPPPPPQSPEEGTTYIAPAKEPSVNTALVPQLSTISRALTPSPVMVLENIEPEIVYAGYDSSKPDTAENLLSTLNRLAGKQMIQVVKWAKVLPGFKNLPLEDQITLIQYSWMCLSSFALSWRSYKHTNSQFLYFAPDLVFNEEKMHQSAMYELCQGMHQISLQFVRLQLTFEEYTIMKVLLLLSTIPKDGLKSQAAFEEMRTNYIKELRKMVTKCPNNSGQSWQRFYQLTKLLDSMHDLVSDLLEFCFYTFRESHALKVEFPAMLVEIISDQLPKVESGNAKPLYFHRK

[5] = target: T9, Progesterone receptor (Homo sapiens) (UniProt P06401)
T9 sequence (whole entry): T3 sequence (P06401 whole entry)
Description: (§2) Antagonist activity against human Progesterone receptor by displacement of radioligand

Estrogen receptor beta [6] = target: T4, Estrogen receptor beta; test: Displacement of radioligand from human Estrogen receptor beta, percent inhibition at 10 uM
[7] = target: T7, Glucocorticoid receptor (Homo sapiens); remark: listed apart in the source
Description: as §1

[8] = target: T8, Mineralocorticoid receptor (Homo sapiens); test: Antagonist activity against human mineralocorticoid receptor as displacement of radioligand, percent […]; format: functional
[9] = target: T9, Progesterone receptor (Homo sapiens); conditions: 1 uM
Description: Antagonist activity against human Progesterone receptor as displacement of radioligand, percent inhibition at 1 uM

[10] = target: T8, Mineralocorticoid receptor (Homo sapiens); remark: listed apart in the source
[11] = target: T9, Progesterone receptor (Homo sapiens); remark: listed apart in the source
Description: as §2

Structure (SMILES)	Ki (Androgen receptor) [µM]	Ki (Progesterone receptor) [µM]	Ki (Glucocorticoid receptor) [µM]	inhibition [2] [%]	Kif [3] [nM]	Kif [4] [nM]	Kif [5] [nM]	inhibition (Estrogen receptor beta [6]) [%]	also measured
COc1ccc2c(c1)CCC1=CC(=O)CCC12Cc1ccccc1 (single isomer, unassigned; form 2) [listing 1 of 2 here]	0.054	> 10	> 10	–	–	–	–	–	Ki (Estrogen receptor): > 10 µM; Ki (Estrogen receptor beta [1]): > 10 µM
COc1ccc2c(c1)CCC1=CC(=O)CCC12Cc1ccccc1 (single isomer, unassigned; form 1) [listing 1 of 2 here]	0.69	> 10	> 10	–	–	–	–	–	Ki (Estrogen receptor beta [1]): > 10 µM
COc1ccc2c(c1)CCC1=CC(=O)CCC12Cc1ccccc1 (single isomer, unassigned; form 1) [listing 2 of 2 here]	–	–	–	27	> 1000	> 1000	> 1000	–	–
O=C1C=C2CCc3cc(O)ccc3C2(Cc2ccccc2)CC1 (single isomer, unassigned; form 2) [listing 1 of 2 here]	0.18	> 10	0.157	–	–	–	–	–	–
O=C1C=C2CCc3cc(O)ccc3C2(Cc2ccccc2)CC1 (single isomer, unassigned; form 2) [listing 2 of 2 here]	–	–	–	70	> 1000	> 1000	> 1000	39	–
O=C1C=C2CCc3cc(O)ccc3C2(Cc2ccccc2)CC1 (single isomer, unassigned; form 1) [listing 1 of 2 here]	–	–	–	36	–	> 1000	> 1000	24	Kif [7]: > 1000 nM
CC#C[C@]1(O)CC[C@H]2[C@@H]3CCC4=CC(=O)CCC4=C3[C@@H](c3ccc(N(C)C)cc3)C[C@@]21C	–	–	–	44	2	–	11.8	92	inhibition [8]: 69.7%; inhibition [9]: 100%; Kif [10]: < 10 nM
O=C1C=C2CCc3cc(O)ccc3C2(Cc2ccccc2)CC1 (single isomer, unassigned; form 1) [listing 2 of 2 here]	> 10	> 10	> 10	–	–	–	–	–	–
COc1ccc2c(c1)CCC1=CC(=O)CCC12Cc1ccccc1 (single isomer, unassigned; form 2) [listing 2 of 2 here]	–	–	–	–	> 1000	–	–	–	Kif [11]: > 1000 nM; Kif [10]: > 1000 nM
